The record followed here is patent publication US8148371B2, “Adenine compound and use thereof” (Dainippon Sumitomo Pharma Co., Ltd., priority 2002, dated 2012).

Like-named read-outs stand apart in the source and are kept apart here. Marks after values point to notes of the source that are not given here.

A short description of data set [1]: Metabolic stability on liver S9 of rat. The conditions noted are these: 37° C.
The subject of another data set is plasma esterase. The conditions noted are these: rat plasma, 37° C., 15 minutes.
The next data set relates to cells of rat spleen. The data set can be described thus: cells. The note with it: for minimal effective concentration: 24 h, read-out: Minimum effective concentration (interferon inducing activity). It counts as cell-based, SD rat.
The mark [2] stands for this setting: rat liver S9, test compound 10 μM (*).
The mark [3] stands for this setting: rat liver S9, test compound 1 μM.

Procedure for plasma esterase: The compound of the present invention is added to the serum solution, and the mixture is incubated at 37±0.5° C. for 5 minutes to 2 hours. By quantitatively analyzing at the definite interval the amount of the compound of the present invention remaining in the serum solution with HPLC (high performance liquid chromatography), etc., the constant of quenching velocity calculated and the half life is calculated.
The serum herein means the supernatant fraction obtained by excluding hemocytes and blood coagulation factor from blood by centrifugation, etc. The serum diluted with buffer, etc. can be used.
The metabolic stability of the test compound was presented by the residual amount (%) per the concentration of pre-metabolization.

For `CCOC(=O)CSc1nc(N)c2nc(O)n(Cc3ccccc3)c2n1` [Example 41, 9-Benzyl-2-(ethoxycarbonylmethyl)thio-8-hydroxyadenine], the Residual rate in data set [1] (setting [2]) was 2* %; with plasma esterase (test compound 10 μM), 0%.
As to `CCCCOc1nc(N)c2[nH]c(=O)n(Cc3cccc(CCC(=O)OC)c3)c2n1` [Example 84, 2-Butoxy-8-hydroxy-9-(3-methoxycarbonylethylbenzyl)adenine], the minimal effective concentration in the data set with cells of rat spleen is 0.01 µM. This compound gave a Residual rate in data set [1] (setting [3]) of 1%.
The compound `CCCCNc1nc(N)c2nc(O)n(Cc3ccc(C(=O)OC)cc3)c2n1` [Example 27, 2-Butylamino-8-hydroxy-9-(4-methoxycarbonylbenzyl)adenine] displayed a Residual rate in the data set on plasma esterase (test compound 10 μM) of 0%.
`CCOC(=O)CCCSc1nc(N)c2nc(O)n(Cc3ccccc3)c2n1` [Example 56, 9-Benzyl-2-(3-ethoxycarbonylpropyl)thio-8-hydroxyadenine]: the Residual rate stood at 1% in data set [1] (setting [3]) and 0% in the data set on plasma esterase (test compound 10 μM).
Regarding `COC(=O)Cc1cccc(CSc2nc(N)c3nc(O)n(Cc4ccccc4)c3n2)c1` [Example 105, 9-Benzyl-8-hydroxy-2-[(3-methoxycarbonylmethylbenzyl)thio]adenine], in the data set with cells of rat spleen, the minimal effective concentration worked out at 0.3 µM. In addition, the Residual rate in data set [1] (setting [3]) turned out to be 1%.
On the same counts, the results for `CCCCOC(=O)Cc1nc(N)c2nc(O)n(Cc3ccccc3)c2n1` [Example 107, 9-Benzyl-2-butoxycarbonylmethyl-8-hydroxyadenine] are 0.1 µM and 3%.
In the case of `CCCCOc1nc(N)c2nc(O)n(Cc3cccc(C(=O)OCCOCc4ccccc4)c3)c2n1` [Example 5, 2-Butoxy-8-hydroxy-9-{3-(2-benzyloxyethoxycarbonyl)benzyl}adenine], the Residual rate with plasma esterase (test compound 10 μM) was 18%.
On to `CCOC(=O)COc1nc(N)c2nc(O)n(Cc3ccccc3)c2n1` [Example 65, 9-Benzyl-2-ethoxycarbonylmethoxy-8-hydroxyadenine], for which, in the data set with cells of rat spleen, the minimal effective concentration is 0.03 µM. The Residual rate in the data set on plasma esterase (test compound 1 μM (*)) is given as 0* %.
The corresponding values for `CCCCOc1nc(N)c2nc(O)n(Cc3ccc(CC(=O)SCC)cc3)c2n1` [Example 75, 2-Butoxy-9-{4-(S-ethylthiocarbonyl)methylbenzyl}-8-hydroxyadenine] are 0.003 µM and 0* %.
For the compound `CSC(=O)CCc1nc(N)c2nc(O)n(Cc3ccccc3)c2n1` [Example 63], the “Minimum effective concentration (interferon inducing activity)” value (shortened to “Minimum effective concentration”) in the data set with cells of rat spleen was 100 nM. Also, the Residual rate in data set [1] (setting [3]) was determined as 0%.
Consider `COCCOC(=O)CSc1nc(N)c2nc(O)n(Cc3ccccc3)c2n1` [Example 49, 9-Benzyl-8-hydroxy-2-(2-methoxyethoxycarbonylmethyl)thioadenine], for which the Residual rate (in data set [1] (setting [3]); with plasma esterase (test compound 10 μM)) was 0% each time.
Consider `CCCCOc1nc(N)c2nc(O)n(Cc3ccc(CN4CCOCC4)cc3)c2n1` [Example 79, 2-Butoxy-8-hydroxy-9-(4-morpholinomethylbenzyl)adenine], for which the minimal effective concentration in the data set with cells of rat spleen was 0.0003 µM. Further, the Residual rate in data set [1] (setting [3]) is recorded as 17%.
In turn, `CCCCOc1nc(N)c2nc(O)n(Cc3ccc(C(=O)OCc4cccnc4)cc3)c2n1` [Example 13, 2-Butoxy-8-hydroxy-9-{4-(3-pyridylmethoxycarbonyl)benzyl}adenine] gave a Residual rate in the data set on plasma esterase (test compound 10 μM) of 10%.
For the compound `CCCCOc1nc(N)c2nc(O)n(Cc3ccc(C(=O)SC)nc3)c2n1` [Example 82, 2-Butoxy-8-hydroxy-9-{(6-S-methylthiocarbonyl-3-pyridyl)methyl}adenine], the “Minimum effective concentration” value in the data set on cells of rat spleen came out at 100 nM. Also, the Residual rate in data set [1] (setting [3]) stood at 2%.
On to `CCCCOc1nc(N)c2nc(O)n(Cc3ccc(OCC(=O)OC)cc3)c2n1` [Example 22, 2-Butoxy-8-hydroxy-9-(4-methoxycarbonylmethoxybenzyl)adenine], for which the Residual rate worked out at 31% in data set [1] (setting [3]) and 0% in the data set with plasma esterase (test compound 10 μM).
For `CC(C)OC(=O)Cc1nc(N)c2nc(O)n(Cc3ccccc3)c2n1` [Example 108, 9-Benzyl-8-hydroxy-2-(isopropoxycarbonylmethyl)adenine], the minimal effective concentration with cells of rat spleen worked out at 0.03 µM. Moreover, the Residual rate in data set [1] (setting [3]) is reported as 3%.
In the case of `CCCCOc1nc(N)c2nc(O)n(Cc3ccc(C(=O)OC)c(C(=O)OC)c3)c2n1` [Example 90, 2-Butoxy-9-(3,4-dimethoxycarbonylbenzyl)-8-hydroxyadenine], the minimal effective concentration with cells of rat spleen came out at 0.0003 µM. In data set [1] (setting [3]), this compound showed a Residual rate of 3%.
In the case of `CCCCOc1nc(N)c2nc(O)n(Cc3cccc(C(=O)OCc4cccnc4)c3)c2n1` [Example 9, 2-Butoxy-8-hydroxy-9-{3-(3-pyridylmethoxycarbonyl)benzyl}adenine], the Residual rate with plasma esterase (test compound 10 μM) came to 1%.
Take `COC(=O)Cc1ccc(CSc2nc(N)c3nc(O)n(Cc4ccccc4)c3n2)cc1` [Example 106, 9-Benzyl-8-hydroxy-2-[(4-methoxycarbonylmethylbenzyl)thio]adenine]: the minimal effective concentration with cells of rat spleen amounted to 0.1 µM. In data set [1] (setting [3]), this compound showed a Residual rate of 3%.
Regarding `Nc1nc(SCC(=O)OCc2ccccc2)nc2c1nc(O)n2Cc1ccccc1` [Example 45, 2-(Benzyloxycarbonylmethyl)thio-9-benzyl-8-hydroxyadenine], the figures for the Residual rate (in data set [1] (setting [2]); in the data set on plasma esterase (test compound 10 μM)) were 8* % and 0%, respectively.
On the same counts, the results for `CCOC(=O)CCSc1nc(N)c2nc(O)n(Cc3ccccc3)c2n1` [Example 55, 9-Benzyl-2-(2-ethoxycarbonylethyl)thio-8-hydroxyadenine] are 4* % and 0%.
For the compound `CC(C)(C)OC(=O)CSc1nc(N)c2nc(O)n(Cc3ccccc3)c2n1` [Example 43, 9-Benzyl-2-(t-butoxycarbonylmethyl)thio-8-hydroxyadenine], the figures for the Residual rate (in data set [1] (setting [3]); in the data set on plasma esterase (test compound 10 μM)) were 2% and 0%, respectively.
The corresponding values for `CCCCCCCCOC(=O)CSc1nc(N)c2nc(O)n(Cc3ccccc3)c2n1` [Example 42, 9-Benzyl-8-hydroxy-2-(octyloxycarbonylmethyl)thioadenine] are 3% and 0%.
With `Nc1nc(SCC(=O)OCCF)nc2c1nc(O)n2Cc1ccccc1` [Example 46, 9-Benzyl-2-(2-fluoroethoxycarbonylmetyl)thio-8-hydroxyadenine], the Residual rate (in data set [1] (setting [3]); in the data set on plasma esterase (test compound 10 μM)) was 0% in each case.
On to `CCOC(=O)CCc1nc(N)c2nc(O)n(Cc3ccccc3)c2n1` [Example 62, 9-Benzyl-2-ethoxycarbonylethyl-8-hydroxy adenine], for which the “Minimum effective concentration” value in the data set on cells of rat spleen is 30 nM. Besides, the Residual rate in the data set on plasma esterase (test compound 1 μM (*)) is 0* %.
Take `CCCCOc1nc(N)c2nc(O)n(Cc3ccc(C(C)C(=O)OC)cc3)c2n1` (centres unmarked) [Example 100, 2-Butoxy-8-hydroxy-9-[4-(1-methoxycarbonylethyl)benzyl]adenine]: in the data set on cells of rat spleen, the minimal effective concentration is 0.0003 µM. In addition, the Residual rate in data set [1] (setting [3]) is recorded as 1%.
In turn, `CCC(=O)OCCOc1nc(N)c2nc(O)n(Cc3ccc(C)nc3)c2n1` [Example 37, 8-Hydroxy-9-(6-methyl-3-pyridyl)methyl-2-{2-(propionyloxy)ethoxy}adenine] gave a Residual rate in the data set with plasma esterase (test compound 10 μM) of 0%.
For `COCCOc1nc(N)c2[nH]c(=O)n(Cc3cccc(CC(=O)OC)c3)c2n1` [Example 96, 8-Hydroxy-9-(3-methoxycarbonylmethylbenzyl)-2-(2-methoxyethoxy)adenine], the minimal effective concentration with cells of rat spleen was 0.003 µM. Further, the Residual rate in data set [1] (setting [3]) is given as 0%.
The corresponding values for `CCCCOc1nc(N)c2nc(O)n(Cc3ccc(OC(O)CCC(=O)OC)cc3)c2n1` (centres unmarked) [Example 95, 2-Butoxy-9-{4-(1-hydroxy-3-methoxycarbonylpropoxy)benzyl}-8-hydroxyadenine] are 0.001 µM and 4%.
In the case of `COC(=O)CNc1nc(N)c2nc(O)n(Cc3ccccc3)c2n1` [Example 31, 9-Benzyl-8-hydroxy-2-methoxycarbonylmethylaminoadenine], the Residual rate is listed as 3% in data set [1] (setting [3]) and 0% in the data set with plasma esterase (test compound 10 μM).
Regarding `CCCCOc1nc(N)c2nc(O)n(Cc3ccc(C(=O)OC(C)C)cc3)c2n1` [Example 12, 2-Butoxy-8-hydroxy-9-(4-isopropoxycarbonylbenzyl)adenine], the Residual rate with plasma esterase (test compound 10 μM) is on record as 29%.
On to `Nc1nc(SCC(=O)OCC(F)F)nc2c1nc(O)n2Cc1ccccc1` [Example 47, 9-Benzyl-2-(2,2-difluoroethoxycarbonylmetyl)thio-8-hydroxyadenine], for which the Residual rate (in data set [1] (setting [3]); with plasma esterase (test compound 10 μM)) was 0% throughout.
As for `CCCCOc1nc(N)c2nc(O)n(Cc3cccc(C(=O)OC(C)C)c3)c2n1` [Example 3, 2-Butoxy-8-hydroxy-9-(3-isopropoxycarbonylbenzyl)adenine], the Residual rate came out at 19% in data set [1] (setting [3]) and 20% in the data set on plasma esterase (test compound 10 μM).
Consider `CCCCOc1nc(N)c2nc(O)n(Cc3ccc(CC(=O)OC)o3)c2n1` [Example 81, 2-Butoxy-8-hydroxy-9-(5-methoxycarbonylmethylfurfuryl)adenine], for which the minimal effective concentration in the data set on cells of rat spleen is 0.001 µM. For the same compound, in data set [1] (setting [3]), the Residual rate was found to be 2%.
`CCCCOc1nc(N)c2nc(O)n(Cc3cccc(C(=O)OCC(F)(F)F)c3)c2n1` [Example 4, 2-Butoxy-8-hydroxy-9-{3-(2,2,2-trifluorroethoxycarbonyl)benzyl}adenine]: the results for the Residual rate (in data set [1] (setting [3]); in the data set on plasma esterase (test compound 10 μM)) were 25% and 23%, respectively.
`CCCCOc1nc(N)c2nc(O)n(Cc3ccc(C(=O)OC(C)C)nc3)c2n1` [Example 18, 2-Butoxy-8-hydroxy-9-{(6-isopropoxycarbonyl-3-pyridyl)methyl}adenine] had a Residual rate in the data set on plasma esterase (test compound 10 μM) of 0%.
Same read-out and setting: the same measure for `CCCCOc1nc(N)c2[nH]c(=O)n(Cc3ccc(C(=O)OC)cc3)c2n1` [Example 11, 2-Butoxy-8-hydroxy-9-(4-methoxycarbonylbenzyl)adenine]: 13%.
Turning to `Nc1nc(CC(=O)OCCF)nc2c1nc(O)n2Cc1ccccc1` [Example 109, 9-Benzyl-2-(2-fluoroethoxycarbonyl)methyl-8-hydroxyadenine], the minimal effective concentration in the data set on cells of rat spleen stood at 0.03 µM. In data set [1] (setting [3]), this compound gave a Residual rate of 0%.
